Values after ≈ are worked out from the molar mass of the structure shown. Where two headings read alike, the source gives them in different places.
Experiments:
[1] = Saturated solubility study (shaking 24 h, HPLC); format: physicochemical; conditions: read-out: Saturation solubility
Experimental: Briefly, excess formulation powders were added into 5 mL buffers, and shaked at 37 °C for 24 h, then the undissolved drug was removed by centrifuging at 13, 000 rpm for 10 min and filtering with 0.22 μm microporous membrane. The drug concentration in the filtrate was determined by HPLC. The freshly prepared ANs, SANs, TANs and S-C-TANs were directly shaking for 24 h at 37 °C, and treated as that of andrographolide, thereafter. ADR was analyzed at 225 nm and at 35 °C using HPLC linked to Ultimate^Ⓡ XB-C18 (4.6 mm × 250 mm, 5 μm) column. The mobile phase which consisted of methanol and water (60:40, v/v) was pumped at 1 mL/min. The HPLC analysis met the methodological requirements by validating.

[2] = Oil-water partition coefficient (Log P); format: physicochemical
Source text: Combining the saturated solubility and log P of each group (shown in Table S1, it could be seen that the greater the saturated solubility is, the greater the log P value is.

[3] = Pharmacokinetic study after gavage; format: in vivo; conditions: SD rats, 50 mg/kg by gavage
Experimental: We explored oral absorption enhancing ability of andrographolide nanocrystals by operating pharmacokinetic studies on SD rat. In brief, twenty-five SD rats were randomly divided into 5 groups, and administrated ADR-water (dispersed ADR in water), ANs, SANs, TANs and S-C-TANs at 50 mg/kg by gavage (Chen et al., [2014]). After administrated for 0.083, 0.25, 0.5, 0.75, 1, 2, 4, 6, 8, 12 and 24 h, about 0.3 mL blood sample was collected by retro-orbital puncture. The plasma was centrifuged at 4,000 r/min for 10 min at 4 °C and stored at −20 °C. The andrographolide concentrations in plasma samples were detected after treatments as following: 50 μL plasma samples, 25 μL luteolin solution (internal standard 10.11 μg/mL) and 200 μL methanol solution were mixed by vortexing for 5 min. The mixed solution was subsequently centrifuged at 12,000 rpm for 10 min and the supernatant was collected and dried at room temperature under a stream of nitrogen. The residue was reconstituted with 50 μL methanol and mixed by vortexing for 3 min. after centrifuging at 12,000 rpm for 10 min, the supernatant was injected into the HPLC system for analysis. The ADR concentration in plasma samples was detected by HPLC following the conditions shown in supplementary materials, and pharmacokinetic parameters were calculated using the DAS 3.3.0 pharmacokinetics program (developed by the Clinical Trial Center of Shanghai University of Traditional Chinese Medicine, Shanghai, China).
Andrographolide was analyzed at 225 nm using HPLC linked to a Ultimate^Ⓡ XB-C18 (4.6 mm ×250 mm, 5μm) column. The mobile phase, consisting of methanol and 0.2% phosphoric acid (46:54, v/v), was pumped at 1 mL/min. The column temperature was 35℃.

[4] = Real-time distribution in the gastrointestinal tract (fluorescent labelling, live imaging); format: in vivo; conditions: SD rats, oral
Experimental: We performed real-time distribution study to explore whether the functional materials have played their full enhancing ability in oral absorption. We used acridine orange to label SDS, fluorescein isothiocyanate isomer I to label TPGS, CS, SDS-TPGS and SDS-CS-TPGS, and rhodamine B to label ADR, respectively. […] The SDS-CS-TPGS + ADR group was administered with SDS-CS-TPGS and ADR at the same time. The animals were killed by cervical dislocation at the pre-set time points of 0.5 h, 1 h, 2 h and 3 h. Then the gastrointestinal tract was removed in time and put it into a small animal live imaging system (Lumina XR, PerkinElmer, America) for photographic observation.
The distribution of gastrointestinal segments in each group of animals at each time period was observed by in live imaging system (Figure 5A). […] In order to further understand the distribution of various materials and ADR in the gastrointestinal tract, we divided the gastrointestinal tract of SD rats into ten parts such as stomach, small intestine which divided into 8 sections on average and colon, as shown in Figure 5(B). […] For example, when SDS-CS-TPGS were taken orally with ADR, the time of 50% SDS-CS-TPGS passing part 4, part 5 and part 6 of small intestine was 0.67 ± 0.01 h, 0.98 ± 0.06 h and 1.04 ± 0.13 h, respectively, which were not much different from that of ADR, as the passing time of ADR in part 4, part 5 and part 6 was 0.65 ± 0.04 h, 1.02 ± 0.01 h and 1.03 ± 0.01 h, respectively. However, these times of other materials and ADR were different, indicating the materials and ADR could not reach the same site of gastrointestinal tract at the same time, which may limit the absorption enhancing ability of functional materials. Combining the results described above, we can conclude that materials in physical mixture may separate in intestinal, and synthesized copolymer could reduce the separation and has better ability to […] the absorption site of drug at the same time.
The passing times of 50% ADR and polymer materials passed through the fourth (T4(50)), fifth (T5(50)) and sixth (T6(50)) segments of small intestine of SD rats were shown in Table S2, and we can find the distribution of ADR and copolymer (S-C-T) were similar.

[5] = system: ear swelling ICR mice model; experiment: Arachidonic acid ear swelling model, ear swelling rate; format: in vivo; conditions: indomethacin 10 mg/kg po; ADR injection 10 mg/kg iv; ADR 100 mg/kg po; S-C-TANs L 25, M 50, H 100 mg/kg po
Experimental: To explore whether the enhancing on bioavailability could result in enhanced therapeutic effect, we studied the anti-inflammatory efficacy of nanocrystal. The ear swelling ICR mice model was established by using arachidonic acid and the anti-inflammatory efficacy was evaluated by employing ear swelling rate of ICR mice serum levels of TNF-α, IL-6 and IL-1β, as pharmacodynamic index. In this study, fifty-six ICR mice were randomly divided into 8 groups, named control group (normal animal), model group (without drug), indomethacin group (positive drug, 10 mg/kg, po), ADR injection group (10 mg/kg, iv), ADR group (100 mg/kg, po), L-S-C-TANs group (low dose of S-C-TANs, 25 mg/kg, po), M-S-C-TANs group (middle dose of S-C-TANs, 50 mg/kg, po) and H-S-C-TANs group (high dose of S-C-TANs, 100 mg/kg, po). […] Cellular inflammatory factors, like TNF-α, IL-1β, and IL-6, were measured by Elisa Kit.
To explore whether the enhancing on bioavailability could result in enhanced therapeutic effect, we studied the anti-inflammatory efficacy of nanocrystal. The ear swelling ICR mice model was established by using arachidonic acid and the anti-inflammatory efficacy was evaluated by employing ear swelling rate of ICR mice serum levels of TNF-α, IL-6 and IL-1β, as pharmacodynamic index. […]

MDCK cells = experiment: Cytotoxicity of nanocrystals; format: cell-based; conditions: drug concentration above 100 μg/mL
[6] = SDS-CS-TPGS and ADR administered at the same time

## C=C1CC[C@@H]2[C@](C)(CO)[C@H](O)CC[C@@]2(C)[C@@H]1C/C=C1/C(=O)OC[C@H]1O [ADR, andrographolide]
[1]; citrate - disodium hydrogen phosphate buffer, 37 °C, pH 4, aqueous buffer, thermodynamic from solid, pH4.0 (C-DHPB)
  solubility at 24 h: 37.68 ± 0.24 µg/mL (≈ 108 µM)
[1]; hydrochloric acid aqueous solution, 37 °C, pH 1.2, simulated gastric fluid, thermodynamic from solid, pH1.2 (HCl)
  solubility at 24 h: 38.2 ± 0.95 µg/mL (≈ 109 µM)
[1]; phosphate buffered saline, 37 °C, pH 6.8, aqueous buffer, thermodynamic from solid, pH6.8 (PBS)
  solubility at 24 h: 32.5 ± 0.42 µg/mL (≈ 92.8 µM)
[1]; purified water, 37℃
  solubility at 24 h: 40.8 ± 0.64 µg/mL (≈ 116 µM)
[2]; Water, 25℃
  logP: 1.78 ± 0.02
[2]; Water, 37℃
  logP: 1.76 ± 0.01
[2]; pH 1.2, pH1.2, 25℃
  logP: 1.85 ± 0.02
[2]; pH 1.2, pH1.2, 37℃
  logP: 1.84 ± 0.02
[2]; pH 4, pH4.0, 25℃
  logP: 1.85 ± 0.02
[2]; pH 4, pH4.0, 37℃
  logP: 1.87 ± 0.02
[2]; pH 6.8, pH6.8, 25℃
  logP: 1.88 ± 0.02
[2]; pH 6.8, pH6.8, 37℃
  logP: 1.94 ± 0.02
[3]; compared with ADR-Water
  Fr (relative bioavailability): 100%
[3]; rat, plasma, po, read-out: Fa (absolute bioavailability)
  bioavailability: 1.83%
[3]; rat, po, plasma
  AUC(0-inf): 1290 ng·h/mL
  AUC(0-t): 1290 ± 218 ng·h/mL
  Cmax: 229 ± 82 ng/mL
  Tmax: 0.717 ± 0.415 h
  half-life: 2.81 ± 0.232 h
[3]; rat, po, plasma, read-out: CLz/F (converted)
  CL/F: 661 mL/min/kg
[3]; rat, po, plasma, read-out: MRT0-t
  MRT last: 5.66 ± 1.26 h
[3]; rat, po, plasma, read-out: MRT0-∞
  MRT inf: 5.75 ± 1.26 h
[3]; rat, po, plasma, read-out: Vz/F
  Vd/F: 161 ± 31.4 L/kg
[4]; [6]
  T4(50), time of 50% passing the fourth segment of small intestine: 0.65 ± 0.04 h
  T5(50), time of 50% passing the fifth segment of small intestine: 1.02 ± 0.01 h
  T6(50), time of 50% passing the sixth segment of small intestine: 1.03 ± 0.01 h
[4]; given alone
  T4(50), time of 50% passing the fourth segment of small intestine: 0.65 ± 0.02 h
  T5(50), time of 50% passing the fifth segment of small intestine: 1.16 ± 0.10 h
  T6(50), time of 50% passing the sixth segment of small intestine: 2.08 ± 0.05 h
[5]
  anti-ear swelling efficacy, order of all groups: ADR injection group > H-S-C-TANs group > positive drug group > M-S-C-TANs group > ADR group ≈ L-S-C-TANs group
MDCK cells
  cytotoxicity: toxicity of ADR emerged

## CCCCCCCCCCCCOS(=O)(=O)[O-].[Na+] [SDS, Sodium dodecyl sulfate]
[4]; given alone
  T4(50), time of 50% passing the fourth segment of small intestine: 0.89 ± 0.03 h
  T5(50), time of 50% passing the fifth segment of small intestine: 1.52 ± 0.12 h
  T6(50), time of 50% passing the sixth segment of small intestine: 2.40 ± 0.02 h

## COc1ccc2c(c1)c(CC(=O)O)c(C)n2C(=O)c1ccc(Cl)cc1 [indomethacin, Indomethacin]
[5]
  anti-ear swelling efficacy, order of all groups: ADR injection group > H-S-C-TANs group > positive drug group > M-S-C-TANs group > ADR group ≈ L-S-C-TANs group

Source: paper PMC9718561, “Multi-functional chitosan copolymer modified nanocrystals as oral andrographolide delivery systems for enhanced bioavailability and anti-inflammatory efficacy” (Drug Delivery, 2022)
